The source of these data is ChEMBL document CHEMBL3244226, “5-Cyano-2'-deoxyuridine 5'-phosphate: a potent competitive inhibitor of thymidylate synthetase” (J Med Chem, 1979).

In one assay the target is T1, Thymidylate synthase (Lactobacillus casei, UniProt P00469).
T1 sequence (P00469 whole entry): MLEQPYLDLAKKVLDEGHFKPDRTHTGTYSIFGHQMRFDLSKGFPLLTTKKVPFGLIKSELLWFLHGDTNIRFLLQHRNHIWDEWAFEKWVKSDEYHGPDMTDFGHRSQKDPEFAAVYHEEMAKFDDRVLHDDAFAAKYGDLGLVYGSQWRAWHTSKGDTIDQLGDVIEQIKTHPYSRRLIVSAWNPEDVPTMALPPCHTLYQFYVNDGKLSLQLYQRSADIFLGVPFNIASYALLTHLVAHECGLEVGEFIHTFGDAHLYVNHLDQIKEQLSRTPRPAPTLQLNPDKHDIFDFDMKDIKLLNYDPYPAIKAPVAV
Put plainly: Competitive inhibition of thymidylate synthase purified from methotrexate-resistant Lactobacillus casei using 2'-deoxy[5-3H]uridine 5'-phosphate by radioisotope assay. Further details: species or system Lacticaseibacillus casei.

In assay [1] the target is T2, Thymidylate synthase (Lactobacillus casei) (UniProt P00469).
T2 sequence (whole entry): T1 sequence (P00469 whole entry)
Put plainly: Irreversible inhibition of thymidylate synthase purified from methotrexate-resistant Lactobacillus casei using 2'-deoxy[5-3H]uridine 5'-phosphate preincubated at 4 uM for 12 mins in absence of co-factor. To be noted: Lacticaseibacillus casei.

The source made the active and inactive calls. No cut-off for these calls is given here.

One may read the Ki as the dissociation constant of the complex between target and ligand, obtained from inhibition or displacement. Lower therefore signals a stronger hold on the target. `O=c1[nH]c(=O)n([C@H]2C[C@H](O)[C@@H](COP(=O)(O)O)O2)cc1[N+](=O)[O-]` showed a Ki at Thymidylate synthase of 29 nM.

On Thymidylate synthase, `O=c1[nH]c(=O)n([C@H]2C[C@H](O)[C@@H](COP(=O)(O)O)O2)cc1S` yielded a Ki of 40 nM.

As for `N#Cc1cn([C@H]2C[C@H](O)[C@@H](COP(=O)(O)O)O2)c(=O)[nH]c1=O`, the inhibition entry in assay [1] was “inactive”. On Thymidylate synthase, this compound registered a Ki of 550 nM.
